# According to patent US20240277658A1, “NLRP3 ACTIVATORS FOR USE IN THE TREATMENT OF INFECTIOUS DISEASES OR CANCER BY ACTIVATING NLRP3 INFLAMMASOME” (ALBERT-LUDWIGS-UNIVERSITÄT FREIBURG, priority 2020, published 2024):
# “And” between values parts separate entries of the source, which are not always exact repeats. Equal entries are not always repeated. Where two headings read alike, the source gives them in different places.
# Assays:
# [1] = system: BMDCs; test: LDH release (lytic cell death, pyroptosis) from LPS-primed BMDCs; assay type: cell-based, mouse; details: for Average (% positive control): LDH release, positive control EN22 25 μM; for cytotoxicity at 25 µM / cytotoxicity at 50 µM / cytotoxicity at 100 µM: Mus musculus, BMDC; for cytotoxicity at 25 µM / cytotoxicity at 50 µM: EN11 series table
# Experimental: (§1) This was tested in cell culture in several different in vitro assays classically used to investigate inflammasome activation. These include measuring inflammasome-dependent lytic cell death (pyroptosis) by detecting release of the cytosolic enzyme lactate dehydrogenase (LDH) using a commercial colorimetric assay and release of proinflammatory cytokines like IL-1β by enzyme-linked immunosorbent assay (ELISA), analyzing cleavage and activation of caspase-1 and IL-1β by immunoblotting and immunofluorescence imaging of ASC speck formation. Lytic cell death was determined via LDH release. Assay results for compounds are illustrated in the Tables below, wherein the concentration of the compounds tested had been 50 μM or as indicated in the table, and the concentration of the known activators has been tested with 5 μM of nigericin, 100 μM of each R837 and CL097. For classification of the activity of a given molecule, release of IL-1β was quantified as % of IL-1% of a respective control activator used for the experiment (highlighted in tables with bold letters). The compounds listes in Table 1 were classified into 4 groups depending on their ability to induce the NLRP3 inflammasome activation, assessed by % IL-1β release as compared to the positive control.
# (§2) Mouse bone marrow-derived dendritic cells (BMDCs) were isolated from femurs and tibias previously described (Gross, Olaf, 2012, “Measuring the inflammasome”, Methods in molecular biology, Clifton, N.J., 844, pp. 199-222.). In brief, tibias and femurs were carefully removed and put to sterile 70% ethanol for 1 minute. Using a 22-G needle attached to a 20 ml-syringe filled with sterile flushing medium, the bone marrow was pressed through the mesh of a […] cell strainer. The cells were spun down by centrifugation at 400×g, 4° C. for 5 minutes and red blood cells lysed by resuspension and incubation for 5 minutes at room temperature in RBC lysis buffer. 9 ml of flushing medium were added and cells were again spun down by centrifugation at 400×g, 4° C. for 5 minutes. Cells were then resuspended in BMDC medium (RPMI, 10% fetal bovine serum, 1% penicillin-streptomycin100 U/ml, 20 ng/ml recombinant murine GM-CSF), counted and plated at a density of 0.5×10^6 cells ml^−1 in 10 ml medium and incubated at 37° C., 5% CO2 in a humidified incubator. After 2 days, 10 ml of fresh medium were added to the cells and after 4 days, the medium was fully exchanged to 20 ml of fresh medium. The cells were allowed to differentiate for 6 to 8 days before usage.
# (§3) For canonical inflammasome activation BMDCs after 7-9 days of differentiation were harvested and counted with a Neubauer Chamber (Hecht Assistant) and the concentration was set to 1 Mio cells ml^−1. 100 μl cell suspension per well were seeded in 96-well plates. The cells were primed with 50 ng ml^−1 E. coli K12 ultra-pure LPS for 3 hours and subsequently treated with canonical inflammasome activators or experimental compounds for 3 hours if not indicated differently (incubation time FIG. 4D, 5, 7, 8, 11, 13-18: 3 h, FIG. 12: 4 h). Concentrations of the stimuli were as follows if not indicated differently: 5 μM nigericin, 100 μM imiquimod (also known as R837), 100 μM CL097, 100 μM R848, […] poly(dA:dT), 300 μg ml^−1 MSU. If an inhibitor was used before stimuli treatment, the inhibitor was added after 2.5 hours of priming and it was incubated for 30 minutes before inflammasome activation. Inhibitors were used as follows: 3 μM MCC950, 45 mM KCl, 30 μM ebselen (2-Phenyl-1,2-benzoselenazol-3-one), 5 μM cytochalasin D (see FIGS. 8, 11, 12 and 17).
# (§4) All inflammasome stimulations were performed in three technical replicates for each condition. […]
# [2] = target: T1, NLRP3 inflammasome (Mus musculus, UniProt Q8R4B8); test: IL-1β release from LPS-primed BMDCs (ELISA) as readout of NLRP3 inflammasome activation; assay type: cell-based; details: for IL-1β: individual replicate values; for Average (% positive control): IL-1β, positive control EN22 25 μM
# T1 construct: endogenous in cells; host or cells: primary mouse bone marrow-derived dendritic cells (BMDCs), LPS-primed
# T1 sequence (Q8R4B8 whole entry): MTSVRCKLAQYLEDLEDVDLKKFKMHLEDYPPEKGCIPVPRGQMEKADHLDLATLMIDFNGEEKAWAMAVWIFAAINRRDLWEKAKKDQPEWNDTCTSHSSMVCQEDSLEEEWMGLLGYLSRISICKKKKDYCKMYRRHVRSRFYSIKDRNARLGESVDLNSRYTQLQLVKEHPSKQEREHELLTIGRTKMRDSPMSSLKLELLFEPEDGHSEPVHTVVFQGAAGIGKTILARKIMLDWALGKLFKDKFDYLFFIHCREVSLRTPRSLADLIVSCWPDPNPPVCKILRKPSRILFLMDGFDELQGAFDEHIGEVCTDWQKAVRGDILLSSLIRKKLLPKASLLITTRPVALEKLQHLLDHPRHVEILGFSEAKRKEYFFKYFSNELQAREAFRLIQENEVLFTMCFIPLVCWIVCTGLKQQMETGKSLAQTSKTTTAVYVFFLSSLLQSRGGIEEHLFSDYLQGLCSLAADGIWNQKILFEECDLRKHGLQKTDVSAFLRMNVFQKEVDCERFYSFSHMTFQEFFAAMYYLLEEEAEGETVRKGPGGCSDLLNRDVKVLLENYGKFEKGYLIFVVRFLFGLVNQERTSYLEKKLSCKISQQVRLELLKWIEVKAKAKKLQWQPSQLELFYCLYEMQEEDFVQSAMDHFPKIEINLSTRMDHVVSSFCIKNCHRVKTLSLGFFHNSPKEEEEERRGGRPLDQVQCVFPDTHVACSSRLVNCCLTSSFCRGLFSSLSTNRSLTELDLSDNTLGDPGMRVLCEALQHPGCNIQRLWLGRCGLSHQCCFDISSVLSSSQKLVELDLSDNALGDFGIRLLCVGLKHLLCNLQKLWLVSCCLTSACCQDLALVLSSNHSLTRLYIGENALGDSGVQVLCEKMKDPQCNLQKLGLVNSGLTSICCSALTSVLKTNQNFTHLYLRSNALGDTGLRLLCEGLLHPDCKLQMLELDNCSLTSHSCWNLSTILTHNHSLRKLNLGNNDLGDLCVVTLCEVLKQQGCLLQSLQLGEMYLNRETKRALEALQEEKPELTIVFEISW
# Experimental: as §1, §2, §3, §4
# [3] = 25 μM, read-out: Average LDH release (% of max.)
# [4] = 25 μM, individual replicate values, read-out: LDH release (% of max.)
# [5] = 50 μM, read-out: Average LDH release (% of max.)
# [6] = 50 μM, individual replicate values, read-out: LDH release (% of max.)
# [7] = 100 μM, individual replicate values, read-out: LDH release (% of max.)
# [8] = 100 μM, read-out: Average LDH release (% of max.)
SMILES,Average (% positive control) ([1]; 25 μM),Average (% positive control) ([1]; 50 μM),Average (% positive control) ([1]; 100 μM),"cytotoxicity at 25 µM [1, 3]","cytotoxicity at 25 µM [1, 4]","cytotoxicity at 50 µM [1, 5]","cytotoxicity at 50 µM [1, 6]","cytotoxicity at 100 µM [1, 7]","cytotoxicity at 100 µM [1, 8]","Average IL-1β ([2]; 25 μM, EN11 series table)","IL-1β ([2]; 25 μM, EN11 series table)","Average IL-1β ([2]; 50 μM, EN11 series table)","IL-1β ([2]; 50 μM, EN11 series table)",Average IL-1β ([2]; 100 μM),IL-1β ([2]; 100 μM),Average (% positive control) ([2]; 25 μM),Average (% positive control) ([2]; 50 μM),Average (% positive control) ([2]; 100 μM)
"O=C(Nc1ccc2ncccc2c1)NC1CCCCC1 [EN11-02, 1-cyclohexyl-3-(quin-olin-6-yl)urea]",20.897 % positive control,21.105 % positive control,19.808 % positive control,10.6%,10.8%,10.7%,10.4%,10.1%,10.1%,0.015 ng/mL,0.015 ng/mL,0.042 ng/mL,0.040 ng/mL and 0.050 ng/mL and 0.036 ng/mL,0.050 ng/mL,0.053 ng/mL and 0.052 ng/mL and 0.046 ng/mL,1.019 % positive control,2.832 % positive control,3.424 % positive control
"O=C(NCCc1ccccc1)Nc1ccc2ncccc2c1 [EN11-07, 1-(2-phenylethyl)-3-(quinolin-6-yl)urea]",27.283 % positive control,28.451 % positive control,26.529 % positive control,13.9%,13.4%,14.5%,14.4%,11.4%,13.5%,0.000 ng/mL,0.000 ng/mL,0.000 ng/mL,0.000 ng/mL,0.053 ng/mL,0.059 ng/mL and 0.052 ng/mL and 0.049 ng/mL,0.000 % positive control,0.000 % positive control,3.621 % positive control
"O=C(NCc1ccccc1)NCc1ccc2ncccc2c1 [EN11-11, 3-benzyl-1-[(quinolin-6-yl)methyl]urea]",8.741 % positive control,8.257 % positive control,10.723 % positive control,4.45%,,4.2%,,5.91%,5.45%,0.000 ng/mL,0.000 ng/mL,0.014 ng/mL,0.021 ng/mL and 0.022 ng/mL and 0.000 ng/mL,0.011 ng/mL,0.012 ng/mL and 0.021 ng/mL and 0.000 ng/mL,0.000 % positive control,0.975 % positive control,0.761 % positive control
"O=C(NCCCc1ccccc1)Nc1ccc2ncccc2c1 [EN11-13, 1-(3-phenylpropyl)-3-(quinolin-6-yl)urea]",15.011 % positive control,20.209 % positive control,31.963 % positive control,7.63%,7.55%,10.3%,10.4%,19.3%,16.3%,0.011 ng/mL,0.000 ng/mL and 0.011 ng/mL and 0.023 ng/mL,0.067 ng/mL,0.067 ng/mL,0.297 ng/mL,0.243 ng/mL and 0.331 ng/mL and 0.316 ng/mL,0.764 % positive control,4.560 % positive control,20.130 % positive control
"O=C(NCc1ccccc1)Nc1ccc2ncccc2c1 [EN11-16, 1-benzyl-3-(quinolin-6-yl)urea]",15.222 % positive control,16.245 % positive control,24.607 % positive control,7.74%,7.87%,8.26%,8.33%,14.2%,12.5%,0.008 ng/mL,0.010 ng/mL and 0.014 ng/mL and 0.000 ng/mL,0.060 ng/mL,0.068 ng/mL and 0.054 ng/mL and 0.058 ng/mL,0.325 ng/mL,0.334 ng/mL and 0.324 ng/mL and 0.315 ng/mL,0.555 % positive control,4.074 % positive control,22.016 % positive control
